Read-outs that look alike come from different tables or passages of the source.
How the values were obtained:
[1] = system: HCV replicon in HUH-7 cells; experiment: HCV replicon FRET assay; type: cell-based, Hepatitis C virus (strain 1b); conditions: Table 1
From the text: An HCV replicon whole cell system was established as described by Lohmann V, Korner F, Koch J, Herian U, Theilmann L, Bartenschlager R., Science 285(5424): 110-3 (1999). This system enabled us to evaluate the effects of our HCV Protease compounds on HCV RNA replication. Briefly, using the HCV strain 1b sequence described in the Lohmann paper (Assession number: AJ238799), an HCV cDNA was synthesized by Operon Technologies, Inc. (Alameda, Calif.), and the full-length replicon was then assembled in plasmid pGem9zf(+) (Promega, Madison, Wis.) using standard molecular biology techniques. The replicon consists of (i) the HCV 5′ UTR fused to the first 12 amino acids of the capsid protein, (ii) the neomycin phosphotransferase gene (neo), (iii) the IRES from encephalomyocarditis virus (EMCV), and (iv) HCV NS3 to NS5B genes and the HCV 3′ UTR. Plasmid DNAs were linearized with ScaI and RNA transcripts were synthesized in vitro using the T7 MegaScript transcription kit (Ambion, Austin, Tex.) according to manufacturer's directions. In vitro transcripts of the cDNA were transfected into the human hepatoma cell line, HUH-7. […] Resulting cell lines were characterized for positive and negative strand RNA production and protein production over time.
The HCV replicon FRET assay was developed to monitor the inhibitory effects of compounds described in the disclosure on HCV viral replication. HUH-7 cells, constitutively expressing the HCV replicon, were grown in Dulbecco's Modified Eagle Media (DMEM) (Gibco-BRL) containing 10% Fetal calf serum (FCS) (Sigma) and 1 mg/ml G418 (Gibco-BRL). Cells were seeded the night before (1.5×10^4 cells/well) in 96-well tissue-culture sterile plates. Compound and no compound controls were prepared in DMEM containing 4% FCS, 1:100 Penicillin/Streptomysin (Gibco-BRL), 1:100 L-glutamine and 5% DMSO in the dilution plate (0.5% DMSO final concentration in the assay). Compound/DMSO mixes were added to the cells and incubated for 4 days at 37° C. After 4 days, cells were first assessed for cytotoxicity using alamar Blue (Trek Diagnotstic Systems) for a CC50 reading. The toxicity of compound (CC50) was determined by adding 1/10th volume of alamarBlue to the media incubating the cells. After 4 h, the fluorescence signal from each well was read, with an excitation wavelength at 530 nm and an emission wavelength of 580 nm, using the Cytofluor Series 4000 (Perspective Biosystems). Plates were then rinsed thoroughly with Phosphate-Buffered Saline (PBS) (3 times 150 μl). The cells were lysed with 25 μl of a lysis assay reagent containing an HCV protease substrate (5× cell Luciferase cell culture lysis reagent (Promega #E153A) diluted to 1× with distilled water, NaCl added to 150 mM final, the FRET peptide substrate (as described for the enzyme assay above) diluted to 10 μM final from a 2 mM stock in 100% DMSO. The plate was then placed into the Cytofluor 4000 instrument which had been set to 340 nm excitation/490 nm emissions, automatic mode for 21 cycles and the plate read in a kinetic mode. EC50 determinations were carried out as described for the IC50 determinations.

[2] = target: T1, HCV NS3/4A protease complex (BMS strain) (UniProt P27958); experiment: FRET peptide assay to monitor HCV NS3/4A proteolytic activity, BMS strain; type: biochemical, Hepatitis C virus (genotype 1a); conditions: read-out: IC50 Range; HCV NS3/4A enzyme assay; Table 1
T1 construct: other: HCV NS3/4A enzyme assay; said of H77 and J4L6S; fused on or other part: Three-lysine solubilising tail at the NS4A C-terminus and a His tag from pET21b (Ni-NTA purification), for the H77 and J4L6S constructs
From the text: HCV NS3 protease complexes, derived from the BMS strain, H77 strain or J4L6S strain, were generated, as described below. These purified recombinant proteins were generated for use in a homogeneous assay (see below) to provide an indication of how effective compounds of the present disclosure would be in inhibiting HCV NS3 proteolytic activity.
Serum from an HCV-infected patient was obtained from Dr. T. Wright, San Francisco Hospital. An engineered full-length cDNA (compliment deoxyribonucleic acid) template of the HCV genome (BMS strain) was constructed from DNA fragments obtained by reverse transcription-PCR (RT-PCR) of serum RNA (ribonucleic acid) and using primers selected on the basis of homology between other genotype 1a strains. From the determination of the entire genome sequence, a genotype 1a was assigned to the HCV isolate according to the classification of Simmonds et al. (See P Simmonds, K A Rose, S Graham, S W Chan, F McOmish, B C Dow, E A Follett, P L Yap and […] Marsden, J. Clin. Microbiol., 31(6), 1493-1503 (1993)). […] The infectious clones, H77 (1a genotype) and J4L6S (1b genotype) were obtained from R. Purcell (NIH) and the sequences are published in Genbank (AAB67036, see Yanagi, M., Purcell, R. H., Emerson, S. U. and Bukh, J. Proc. Natl. Acad. Sci. U.S.A. 94(16), 8738-8743 (1997); AF054247, see Yanagi, M., St Claire, M., Shapiro, M., Emerson, S. U., Purcell, R. H. and Bukh, J, Virology 244 (1), 161-172. (1998)).
NS3/4A protease complex-containing fractions were pooled and loaded on a desalting column Superdex-S200 pre-equilibrated with buffer D (25 mM HEPES, pH 7.5, 20% glycerol, 300 mM NaCl, 0.2% Triton X-100, 10 mM βME). Sample was loaded at a flow rate of 1 mL/min. NS3/4A protease complex-containing fractions were pooled and concentrated to approximately 0.5 mg/ml. The purity of the NS3/4A protease complexes, derived from the BMS, H77 and J4L6S strains, were judged to be greater than 90% by SDS-PAGE and mass spectrometry analyses. The enzyme was stored at −80° C., thawed on ice and diluted prior to use in assay buffer.
The purpose of this in vitro assay was to measure the inhibition of HCV NS3 protease complexes, derived from the BMS strain, H77 strain or J4L6S strain, as described above, by compounds of the present disclosure. This assay provides an indication of how effective compounds of the present disclosure would be in inhibiting HCV NS3 proteolytic activity.
In order to monitor HCV NS3/4A protease activity, an NS3/4A peptide substrate was used. The substrate was RET S1 (Resonance Energy Transfer Depsipeptide Substrate; AnaSpec, Inc. cat # 22991) (FRET peptide), described by Taliani et al. in Anal. Biochem. 240(2):60-67 (1996). The sequence of this peptide is loosely based on the NS4A/NS4B natural cleavage site for the HCV NS3 protease except there is an ester linkage rather than an amide bond at the cleavage site. The peptide also contains a fluorescence donor, EDANS, near one end of the peptide and an acceptor, DABCYL, near the other end. The fluorescence of the peptide is quenched by […] resonance energy transfer (RET) between the donor and the acceptor, but as the NS3 protease cleaves the peptide the products are released from RET quenching and the fluorescence of the donor becomes apparent.
The peptide substrate was incubated with one of the three recombinant NS3/4A protease complexes, in the absence or presence of a compound of the present disclosure. The inhibitory effects of a compound were determined by monitoring the formation of fluorescent reaction product in real time using a Cytofluor Series 4000.
Assay buffer: 50 mM HEPES, pH 7.5; 0.15 M NaCl; 0.1% Triton; 15% Glycerol; 10 mM βME. Substrate: 2 μM final concentration (from a 2 mM stock solution in DMSO stored at −20° C.). HCV NS3/4A protease type 1a (1b), 2-3 nM final concentration (from a 5 μM stock solution in 25 mM HEPES, pH 7.5, 20% glycerol, 300 mM NaCl, 0.2% Triton-X100, 10 mM βME). […]

[3] = Hepatitis C virus, Huh-7, read-out: EC50 Range, HCV replicon cell assay

T1 sequence (P27958 1027-1657, one chain of several): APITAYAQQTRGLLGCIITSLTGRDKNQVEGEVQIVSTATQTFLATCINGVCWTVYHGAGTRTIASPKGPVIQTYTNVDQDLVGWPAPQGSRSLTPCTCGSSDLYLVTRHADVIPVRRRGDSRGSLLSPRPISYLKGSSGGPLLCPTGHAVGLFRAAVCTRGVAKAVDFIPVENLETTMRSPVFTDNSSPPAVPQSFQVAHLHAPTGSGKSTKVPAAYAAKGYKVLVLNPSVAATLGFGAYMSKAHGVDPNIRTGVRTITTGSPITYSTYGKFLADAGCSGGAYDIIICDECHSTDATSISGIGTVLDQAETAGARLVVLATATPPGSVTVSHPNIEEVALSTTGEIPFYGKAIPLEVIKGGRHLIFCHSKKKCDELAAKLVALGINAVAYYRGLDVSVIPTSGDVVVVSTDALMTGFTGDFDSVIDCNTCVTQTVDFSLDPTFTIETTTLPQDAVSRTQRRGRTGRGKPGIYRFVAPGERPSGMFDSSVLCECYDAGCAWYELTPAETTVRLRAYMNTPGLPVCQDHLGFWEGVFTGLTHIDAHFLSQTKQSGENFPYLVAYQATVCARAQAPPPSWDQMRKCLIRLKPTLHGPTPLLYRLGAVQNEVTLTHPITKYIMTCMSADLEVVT

Row | SMILES | EC50 [1, 3] | IC50 [2] | EC50 ([1]; read-out: EC50 Range, HCV replicon cell assay)
1 | C=C[C@@H]1C[C@]1(NC(=O)[C@@H]1C[C@@H](Oc2nccc3cc(OC)ccc23)CN1C(=O)[C@@H](OC(=O)NC1(C(F)(F)F)CC1)C(C)C)C(=O)NS(=O)(=O)C1CC1 [Example 54Compound 54] | 500 to 5000 nM | 100 to 1000 nM | –
2 | C=C[C@@H]1C[C@]1(NC(=O)[C@@H]1C[C@@H](Oc2nccc3cc(OC)ccc23)CN1C(=O)[C@@H](OC(=O)NC(C)(C)C)C(C)(C)C)C(=O)NS(=O)(=O)c1cn(C)cn1 [Example 60Compound 60] | > 5000 nM | > 1000 nM | –
3 | CCC1C[C@]1(NC(=O)[C@@H]1C[C@@H](Oc2cc(-c3ccccc3)nc3cc(OC)ccc23)CN1C(=O)[C@@H](O)CC(C)C)C(=O)NS(=O)(=O)C1CC1 (stereo partly drawn) [Example 17] | 500 to 5000 nM | 100 to 1000 nM | –
4 | C=C[C@@H]1C[C@]1(NC(=O)[C@@H]1C[C@@H](Oc2cc(-c3ccccc3)nc3cc(OC)ccc23)CN1C(=O)C(O)CC(C)C)C(=O)NS(=O)(=O)C1CC1 (stereo partly drawn) [Example 4,Compound 2] | 500 to 5000 nM | 100 to 1000 nM | –
5 | C=C[C@@H]1C[C@]1(NC(=O)[C@@H]1C[C@@H](Oc2cc(-c3ccccc3)nc3cc(OC)ccc23)CN1C(=O)[C@@H](OC(=O)Nc1ccc(OC)cc1C)C(C)(C)C)C(=O)NS(=O)(=O)C1CC1 [Example 5,Compound 6] | 500 to 5000 nM | 100 to 1000 nM | –
6 | C=C[C@@H]1C[C@]1(NC(=O)[C@@H]1C[C@@H](Oc2nccc3ccccc23)CN1C(=O)[C@@H](OC(=O)NC(C)C)C(C)(C)C)C(=O)NS(=O)(=O)C1CC1 [Example 26] | 500 to 5000 nM | 100 to 1000 nM | –
7 | C=C[C@@H]1C[C@]1(NC(=O)[C@@H]1C[C@@H](Oc2nccc3cc(OC)ccc23)CN1C(=O)[C@@H](O)C(C)C)C(=O)NS(=O)(=O)C1CC1 (stereo in doubt) [Example 52Compound 52] | – | 100 to 1000 nM | > 5000 nM
8 | CCC1C[C@]1(NC(=O)[C@@H]1C[C@@H](Oc2cc(-c3ccccc3)nc3cc(OC)ccc23)CN1C(=O)C(O)C(C)C)C(=O)NS(=O)(=O)C1CC1 (stereo partly drawn) [Example 11] | 500 to 5000 nM | < 100 nM | –
9 | C=C[C@@H]1C[C@]1(NC(=O)[C@@H]1C[C@@H](Oc2nccc3ccccc23)CN1C(=O)[C@@H](OC(=O)Nc1ccc(F)cc1)C(C)(C)C)C(=O)NS(=O)(=O)C1CC1 [Example 30] | 500 to 5000 nM | 100 to 1000 nM | –
10 | C=C[C@@H]1C[C@]1(NC(=O)[C@@H]1C[C@@H](Oc2nc(-c3ccc(OC(F)(F)F)cc3)cc3cc(OC)ccc23)CN1C(=O)[C@@H](O)[C@@H](C)CC)C(=O)NS(=O)(=O)C1CC1 [Example 61Compound 61] | 500 to 5000 nM | 100 to 1000 nM | –
11 | C=C[C@@H]1C[C@]1(NC(=O)[C@@H]1C[C@@H](Oc2cc(-c3ccccc3)nc3cc(OC)ccc23)CN1C(=O)[C@@H](OC(=O)NC(C)(C)C)C(C)(C)C)C(=O)NS(=O)(=O)C1CC1 [Example 5,Compound 1] | < 500 nM | < 100 nM | –
12 | C=C[C@@H]1C[C@]1(NC(=O)[C@@H]1C[C@@H](Oc2nccc3ccccc23)CN1C(=O)[C@@H](O)C(C)(C)C)C(=O)NS(=O)(=O)C1CC1 [Example 8] | 500 to 5000 nM | 100 to 1000 nM | –
13 | C=C[C@@H]1C[C@]1(NC(=O)[C@@H]1C[C@@H](Oc2ncnc3ccccc23)CN1C(=O)[C@@H](OC(=O)NC(C)(C)C)C(C)(C)C)C(=O)NS(=O)(=O)C1CC1 [Example 57Compound 57] | 500 to 5000 nM | 100 to 1000 nM | –
14 | C=C[C@@H]1C[C@]1(NC(=O)[C@@H]1C[C@@H](Oc2nc(-c3ccc(OC(F)(F)F)cc3)cc3cc(OC)ccc23)CN1C(=O)[C@@H](O)C(C)(C)COC)C(=O)NS(=O)(=O)C1CC1 [Example 63Compound 63] | 500 to 5000 nM | < 100 nM | –
15 | CCC1C[C@]1(NC(=O)[C@@H]1C[C@@H](Oc2cc(-c3ccccc3)nc3cc(OC)ccc23)CN1C(=O)[C@@H](O)C1CCCCC1)C(=O)NS(=O)(=O)C1CC1 (stereo partly drawn) [Example 13] | 500 to 5000 nM | < 100 nM | –
16 | C=C[C@@H]1C[C@]1(NC(=O)[C@@H]1CC(Oc2nc(-c3ccc(OC(F)(F)F)cc3)cc3cc(OC)ccc23)CN1C(=O)[C@@H](O)C(C)(C)C)C(=O)NS(=O)(=O)C1CC1 (stereo partly drawn) [Example 20] | 500 to 5000 nM | < 100 nM | –
17 | C=C[C@@H]1C[C@]1(NC(=O)[C@@H]1C[C@@H](Oc2nccc3ccccc23)CN1C(=O)[C@@H](OC(=O)Nc1ccc(C(C)(C)C)cc1)C(C)(C)C)C(=O)NS(=O)(=O)C1CC1 [Example 33] | 500 to 5000 nM | 100 to 1000 nM | –
18 | C=C[C@@H]1C[C@]1(NC(=O)[C@@H]1C[C@@H](Oc2cc(-c3ccccc3)nc3cc(OC)ccc23)CN1C(=O)[C@@H](OC(=O)Nc1ccccc1)C(C)(C)C)C(=O)NS(=O)(=O)C1CC1 [Example 5,Compound 4] | < 500 nM | < 100 nM | –
